The values that follow come from patent US6201129A, “Tricyclic derivatives and their use as anti-cancer agents” (Univ. College Cardiff Consultants, priority 1997, dated 2001).

This test concerns HT1080scc2 (clone of human fibrosarcoma cell-line HT1080). The test is described as follows: Cell proliferation/cytotoxicity assay, methylene blue biomass staining. As to conditions: HT-1080, HT1080scc2 cells, 1×10^3 cells per well, compound added day 1, further 4 days at 37° C., methylene blue staining read at 620 nm. In kind it is cell-based. The procedure: Compounds of the general formula (I) have been tested against two specially developed cell lines which are clones of the human fibrosarcoma cell-line HT1080. One clone HT1080scc2, retains the transformed phenotype of the parental line, whilst the other, HT10801c, is a morphologically flat, non-tumourigenic, revertant.
Assays for cell proliferation/cytotoxity were carried out in tissue culture grade 96 well microtitre plates (Costar). Cells in log growth were added to the plates at a concentration of 1×10^3 cells per well on day 0 and serially diluted compounds were then added on day 1. Plates were then incubated at 37° C. in 5% CO2 in air for a further 4 days.
For quantitation of cell growth, the methylene blue biomass staining method was used, the test being read on a Multiscan plate reader at wavelength of 620 nm. The morphology of the cells was checked microscopically under phase-contrast immediately before the fixation and staining with methylene blue, and by ordinary light microscopy thereafter. IC50 values for active compounds were obtained using the computer programme, GS1 and dose-response slopes were also plotted.

The term IC50 denotes the point on the concentration scale where inhibition reaches its midpoint. Consider `CCOC(=O)c1[nH]c2cc3[nH]c(C)cc3c(C)c2c1C` [Example 2, Ethyl 1,7-dihydro-3,4,6-trimethylpyrrolo[3,2-f]indole-2-carboxylate], for which the IC50 stood at 3 µM.

For `CCOC(=O)c1[nH]c2cc3c(C(=O)OCC)c(C)[nH]c3c(C)c2c1C` [Example 1, Diethyl 1,5-dihydro-3,4,6-trimethylpyrrolo[2,3-f]indole-2,7-dicarboxylate], the IC50 is 100 µM.
